From ChEMBL document CHEMBL1141549, “Synthesis and antihyperglycemic activity of novel N-acyl-2-arylethylamines and N-acyl-3-coumarylamines” (2008)

The compounds below were run on Rattus norvegicus (assay: Antihyperglycemic activity in sucrose loaded diabetic Sprague-Dawley rat model assessed as reduction of plasma glucose levels at 100 mg/kg, po).
Type: functional
Design: scale not given: the % may be the effect or the level left

Point of comparison: `CN(C)C(=N)NC(=N)N` [METFORMIN], Activity 12.9%. Against it:
- O=C(Nc1cc2ccccc2oc1=O)c1ccccc1 — lower, 10.7%
- COc1ccc(CCNC(=O)/C=C/c2cccc(C(F)(F)F)c2)cc1OC — higher, 32.8%
- O=C(/C=C/c1ccccc1)Nc1cc2ccccc2oc1=O — higher, 22.3%
- COc1cccc(/C=C/C(=O)NCCc2ccc(OC)c(OC)c2)c1 — higher, 25.2%
- CC(C)(C)c1cc(C(C)(C)C)c2oc(=O)c(NC(=O)c3ccccc3)cc2c1 — higher, 23.3%
- CC(C)(C)c1cc(C(C)(C)C)c2oc(=O)c(NC(=O)/C=C/c3cccc(C(F)(F)F)c3)cc2c1 — higher, 21.1%
- COc1cc(/C=C/C(=O)NCCc2ccc(OC)c(OC)c2)ccc1O — higher, 30.7%
- COc1ccc(CCNC(=O)/C=C/c2cc(OC)c(OC)c(OC)c2)cc1OC — lower, 2.41%
- COc1ccc(CCNC(=O)/C=C/c2ccccc2)cc1OC — higher, 20.1%
- COc1ccc(CCNC(=O)/C=C/c2ccc(F)cc2)cc1OC — higher, 23.4%
- COc1ccc(/C=C/C(=O)NCCc2ccc(OC)c(OC)c2)cc1 — higher, 19.5%
- CC(C)(C)c1cc(C(C)(C)C)c2oc(=O)c(NC(=O)/C=C/c3ccccc3)cc2c1 — lower, 8.89%
- COc1ccc(CCNC(=O)/C=C/c2ccc(Cl)cc2)cc1OC — higher, 21.5%
- COc1ccc(Cl)cc1C(=O)NCCc1ccc(S(=O)(=O)NC(=O)NC2CCCCC2)cc1 [GLYBURIDE] — higher, 33.7%
